Laboratory results published in US11369568B2, “Microparticles comprising a sulphur-containing compound” (NOVABIOTICS LIMITED, priority 2016, dated 2022).

Key:
[1] = system: P. aeruginosa ATCC27853; test: Mouse IN neutropenic lung burden model, Lynovex/Lactose study; format: in vivo, Pseudomonas aeruginosa; details: CD1 mice, 24 h post-infection
Protocol: Animals were immunosuppressed/pre-conditioned with either 200 mg/kg or 150 mg/kg cyclophosphamide. Lynovex, chemical name cysteamine, and vehicle were either prepared either as Lynovex and lactose vehicle, or Lynovex and mannitol-based vehicle (both provided by Upperton (Upperton product)). These were prepared for treatment and vehicle-control alone respectively, and in combination. Tobramycin was prepared as an inhalation formulation in lactose. All treatments were administered using a Penn Century device. Phosphate buffered saline (PBS) and Pseudomonas selective agar were required for bacterial tissue burden.
(§1) Male CD1 mice (n =6 for treatment groups, plus five in pre-treatment group, totalling 35 mice) were used in this study. On day −4, the mice were immunosuppressed/pre-conditioned with 200 mg/kg cyclophosphamide intraperitoneally; and with 150 mg/kg cyclophosphamide intraperitoneally on day-1. An infection was established with P. aeruginosa ATCC27853, with an inoculum of 5×10^6 cfu/ml, administered intranasally in a volume of 40 μl following anaesthetisation with a ketamine/xylazine anaesthetic cocktail for 15 minutes, for the Lynovex prepared in lactose study, and an inoculum of 4×10^6 for the Upperton Lynovex product.
Treatment. All treatments were administered intratracheally using a Penn Century device.
Lynovex (cysteamine) was administered at 1.5 mg alone, and in combination with lactose at the following concentrations: Lynovex 0.75 mg+2.25 mg lactose powder, Lynovex 1.5 mg+1.5 mg lactose powder, Lynovex 2.25 mg+0.75 mg, along with a vehicle only control of 3 mg lactose. In addition, Tobramycin at 188 μg/dose was administered, as an inhaled formulation which was mixed with lactose to aid measurement. The treatments were administered approximately 5 minutes after infection.
The lung tissue burden of each animal, at the clinical end point of 24 h post-infection, was determined. The lungs were homogenised in 2 ml PBS, serially diluted in PBS and plated onto Pseudomonas selective agar before quantification after 24-48 h at 37° C.

[2] = Mouse weights recorded before and after infection; format: in vivo; details: infected CD1 mice, Upperton product study (FIG. 6)
Protocol: as §1
In a different study, Lynovex was administered at the following doses: 3 mg 5% Lynovex and 3 mg 10% Lynovex. Lynovex in combination with Tobramycin as follows: 3 mg 5% Lynovex+Tobramycin 0.188 mg in 1.5 mg vehicle, 3 mg 10% Lynovex+Tobramycin 0.188 mg in 1.5 mg Vehicle (mannitol-based, provided by Upperton) and a Tobramycin only control (0.188 mg/dose in lactose vehicle). The treatments were administered once approximately 10 minutes after infection.
Additionally, mouse weights were recorded before and after infection. Mice treated with vehicle, Lynovex monotherapy or Tobramycin monotherapy lost weight following infection. […]

| SMILES | lung burden compared to vehicle ([1]; 1.5 mg intratracheal, P=0.0072) | lung burden compared to vehicle ([1]; 2.25 mg intratracheal, P=0.0349) | lung burden compared with vehicle-treated mice ([1]; 0.188 mg inhalation formulation, intratracheal, P=0.0097 Kruskal Wallis test) | mouse weight following infection [2] |
| --- | --- | --- | --- | --- |
| NCCS [Lynovex, cysteamine] | reduced the lung burden | reduced the lung burden | – | – |
| NC[C@H]1O[C@H](O[C@H]2[C@H](O)[C@@H](O[C@H]3O[C@H](CO)[C@@H](O)[C@H](N)[C@H]3O)[C@H](N)C[C@@H]2N)[C@H](N)C[C@@H]1O [Tobramycin] | – | – | statistically significant reduction in lung burden | lost weight |
